Assay results as given in PubChem BioAssay (NCI).
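Tested at 5 concentrations; 48 h exposure; 96-well plates; endpoints linearly interpolated, else capped at highest concentration. TGI is the concentration that stops growth completely.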

How the values were obtained:
Assay in all cases: growth of human tumour cells (NCI), 48 h
[1] = system: HCT-116 colon
[2] = system: LXFL 529 NSCLC
[3] = system: DLD-1 colon
[4] = system: M19-MEL melanoma
[5] = system: DMS 114 small cell lung
[6] = system: LOX IMVI melanoma
[7] = system: SK-MEL-2 melanoma
[8] = system: KM20L2 colon
[9] = system: SNB-78 CNS
[10] = system: DMS 273 small cell lung
[11] = system: XF 498 CNS
[12] = system: HOP-18 NSCLC

OC1=CN=C(C2CC2)Oc2ccccc21
TGI [1]: > 100 µM | TGI [2]: > 100 µM | TGI [3]: > 100 µM | TGI [4]: > 100 µM | TGI [5]: > 100 µM | TGI [6]: > 100 µM | TGI [7]: > 100 µM | TGI [8]: > 100 µM | TGI [9]: > 100 µM | TGI [10]: > 100 µM

Cc1ccc(S(=O)(=O)C(C#N)c2nc3ccccc3nc2N2CCOCC2)cc1 (stereo not drawn)
TGI [11]: 81.7 µM | TGI [1]: 38.4 µM | TGI [2]: > 100 µM | TGI [3]: 93.1 µM | TGI [4]: 81.6 µM | TGI [5]: 49.5 µM | TGI [6]: 57.3 µM | TGI [7]: 88.6 µM | TGI [8]: > 100 µM | TGI [9]: 15.9 µM | TGI [10]: 49.4 µM

c1ccc(-c2sc(-c3ccccc3)c3c2C2CCC3C2)cc1
TGI [1]: > 100 µM | TGI [6]: > 100 µM | TGI [7]: 39.5 µM

COC(=N)c1ncn(Cc2ccccc2)c1N
TGI [1]: > 100 µM | TGI [6]: > 100 µM | TGI [7]: > 100 µM

CCn1c(SCC(=O)NNC(=S)Nc2ccc(Cl)cc2)nc2ccccc2c1=O
TGI [1]: > 100 µM | TGI [6]: > 100 µM | TGI [7]: > 100 µM

N=c1oc2ccc([N+](=O)[O-])cc2cc1C(=O)Nc1ccccn1
TGI [1]: > 100 µM | TGI [6]: > 100 µM | TGI [7]: 43.4 µM

CSC1=N/C(=C\c2ccccc2)C(=O)N1CN1CCOCC1
TGI [1]: > 100 µM | TGI [6]: > 100 µM | TGI [7]: > 100 µM

CCOC(=O)c1ncn2c1[nH]c(=O)c1ccccc12
TGI [11]: > 100 µM | TGI [1]: > 100 µM | TGI [2]: > 100 µM | TGI [4]: > 100 µM | TGI [5]: > 100 µM | TGI [6]: > 100 µM | TGI [7]: > 100 µM | TGI [8]: > 100 µM | TGI [9]: > 100 µM | TGI [10]: > 100 µM

C[As](C)SCC(NC(=O)CCC(N)C(=O)O)C(=O)NCC(=O)O.Cl.c1ccncc1 (stereo not drawn)
TGI [1]: 1.53 µM | TGI [6]: 1.02 µM | TGI [7]: 1.67 µM

Cc1ccc(O)c(-c2cc(-c3ccccc3)nc(/N=C\c3ccccc3)n2)c1
TGI [1]: > 100 µM | TGI [6]: > 100 µM | TGI [7]: > 100 µM

Cc1cc(O)c2c(c1)C(=O)C=C(Br)C2=O
TGI [1]: 30.8 µM | TGI [6]: 25.4 µM | TGI [7]: 31.2 µM

c1csc(-c2cscc2-c2cccs2)c1
TGI [1]: > 100 µM | TGI [6]: > 100 µM

O=CN1CCN(C(=O)c2ccc(Cl)cc2)C1=S
TGI [1]: 34.8 µM | TGI [6]: 24.5 µM | TGI [7]: 36 µM

c1ccc2c(c1)ncn2CCn1ccnc1
TGI [6]: > 100 µM | TGI [7]: > 100 µM

O=C(Nc1sccc1S(=O)(=O)c1ccc(Cl)cc1)c1ccc(Cl)cc1Cl
TGI [1]: > 100 µM | TGI [6]: > 100 µM | TGI [7]: > 100 µM

CC(=O)c1c2c(cc3c1CC1(C3)Cc3ccc4c(c3C1=O)CCC4)CCC2 (stereo not drawn)
TGI [1]: > 100 µM | TGI [6]: > 100 µM | TGI [7]: > 100 µM

O=C(OCC(Cl)(Cl)Cl)N1CC[C@@H](C2CCCCC2)C1
TGI [1]: 80.7 µM | TGI [6]: > 100 µM | TGI [7]: 33.1 µM

c1csc(-c2ccc(-c3ccsc3)s2)c1
TGI [1]: > 100 µM | TGI [6]: > 100 µM | TGI [7]: > 100 µM

O=[N+]([O-])c1ccc(/C=N/n2c(CCc3n[nH]c(=S)n3/N=C/c3ccc([N+](=O)[O-])o3)n[nH]c2=S)o1
TGI [1]: 29 µM | TGI [6]: 50.6 µM | TGI [7]: 42.9 µM

CN(C)C=NCc1ccc2c(c1)OCO2
TGI [1]: > 100 µM | TGI [6]: > 100 µM | TGI [7]: > 100 µM

[O-]/N=N\c1on[n+](CCc2ccccc2)c1Cc1c(/N=N/[O-])on[n+]1CCc1ccccc1
TGI [1]: > 100 µM | TGI [6]: > 100 µM | TGI [7]: 94 µM

CCNC(=S)Nc1c(C#N)c2n(c1C(=O)OCC)CCCCC2
TGI [1]: > 100 µM | TGI [6]: > 100 µM | TGI [7]: > 100 µM

CCSC1=C(C#N)C2(CCCCC2)C2=C(CC(C)(C)CC2=O)N1
TGI [1]: > 100 µM | TGI [6]: > 100 µM | TGI [7]: > 100 µM

COC1=CCC2=C(CCN(C(=O)C3CC3)C2Cc2ccc(OC)c(O)c2)C1 (stereo not drawn)
TGI [1]: > 100 µM | TGI [6]: > 100 µM | TGI [7]: > 100 µM

Cc1ccc(N(C)S(=O)(=O)c2ccccc2)cc1
TGI [1]: > 100 µM | TGI [6]: > 100 µM | TGI [7]: > 100 µM

CC1(C)CC(=O)C(CC2C(=O)c3ccccc3C2=O)C(=O)C1C(=O)C(=O)Nc1cccc2ccc(O)cc12 (stereo not drawn)
TGI [1]: > 100 µM | TGI [6]: > 100 µM | TGI [7]: > 100 µM

COc1ccc(/C=N/NS(=O)(=O)c2ccc(/C=C3\NC(=O)N(C)C3=O)cc2)cc1
TGI [1]: > 100 µM | TGI [6]: > 100 µM | TGI [7]: > 100 µM

N#Cc1nc(-c2ccccc2O)oc1N
TGI [1]: > 100 µM | TGI [6]: > 100 µM | TGI [7]: > 100 µM

CC(C)(C)OC(=O)N(CCCCNC(=O)c1ccccc1)CCCNC(=O)c1ccccc1
TGI [1]: > 100 µM | TGI [7]: > 100 µM

O=C1CC(NCCCNC2CC(=O)c3c(Br)sc(Br)c32)c2c(Br)sc(Br)c21 (stereo not drawn)
TGI [1]: 2.41 µM | TGI [7]: 5.01 µM

CCOC(=O)C1=COC(C)(C)CC1=O
TGI [1]: > 100 µM | TGI [7]: > 100 µM

CC(C)CNC(=O)c1c(NC(=O)c2ccccc2)sc2[nH]c(=O)n(-c3ccccc3)c(=O)c12
TGI [1]: > 100 µM | TGI [6]: > 100 µM | TGI [7]: 68.6 µM

c1csc(-c2sc(-c3ccsc3)cc2Cc2ccsc2)c1
TGI [6]: > 10 µM

Cc1ccc([S+](c2ccccc2)c2cc(C)ccc2C)cc1 (stereo not drawn)
TGI [1]: > 100 µM | TGI [3]: 19.1 µM | TGI [4]: > 100 µM | TGI [5]: 13.8 µM | TGI [6]: > 100 µM | TGI [12]: 26.4 µM | TGI [10]: 15.3 µM

CC(=O)OCC1OC(N2C(=O)CC(N)=Nc3ccccc32)C(OC(C)=O)C(OC(C)=O)C1OC(C)=O (stereo not drawn)
TGI [1]: > 100 µM | TGI [6]: > 100 µM | TGI [7]: > 100 µM

O=C(Nc1ccc(Cl)cc1Cl)c1cc2nc3ccccc3c(=O)n2c2ccccc12
TGI [1]: > 10 µM | TGI [6]: > 10 µM | TGI [7]: > 10 µM

CC(=O)[C@H]1[C@@H](OCc2ccccc2)O[N+]([O-])=C(C)[C@@H]1c1ccccc1
TGI [6]: 45.7 µM | TGI [7]: > 100 µM

COc1ccc(C(=O)/C=C/c2ccc(OCC#N)cc2)cc1OC
TGI [1]: 17.2 µM

CC12OC3(C(O)C1O)C(C(=O)O[C@H]3CO[Si](C)(C)C(C)(C)C)C2S(=O)(=O)c1ccccc1 (stereo partly drawn)
TGI [1]: > 100 µM | TGI [6]: 46.8 µM | TGI [7]: > 100 µM

Cc1ccccc1C(=O)NC(O)(C(F)(F)F)C(F)(F)F
TGI [1]: > 100 µM | TGI [6]: > 100 µM | TGI [7]: > 100 µM

Clc1cc2nnn(C3CCCCO3)c2cc1Cl (stereo not drawn)
TGI [1]: > 100 µM | TGI [7]: > 100 µM
